From patent publication US20110212977A1, “P70 S6 KINASE INHIBITOR AND MTOR INHIBITOR COMBINATION THERAPY” (ELI LILLY AND COMPANY, priority 2008, published 2011)

System: U87MG human glioblastoma cells
Assay: Determination of In Vivo Efficacy: U87MG human glioblastoma xenograft tumor volume;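 also: subcutaneous flank xenografts in female athymic nude mice, tumor volume measured twice weekly, log volumes compared with the combined-vehicle control group by repeated measures ANOVA at each time point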
Settings: for Tumor volume Mean / Signif. (difference in tumor volume relative to the vehicle group): 3 mg/kg of each agent orally once daily; for Tumor volume Mean: U87MG xenograft in nude mice
Experimental: The vehicle group is given the 2 vehicles (NaCMC Tween 80 and 35% PEG300/10% HPBCD/10% PS80 in H2O) in combination (0.1 mL of each). Treatment is continued for 23 days. Tumor volumes are measured using standard technique twice weekly and reported. Tumor size and body weight are recorded and analyzed bi-weekly. Tumor volume is estimated by using the formula: v=l×w^2×0.536 where l=larger of measured diameter and w=smaller of perpendicular diameter. The analysis uses SAS software version 8.2 (SAS Institutes Inc, Cary, N.C.) to analyze the log tumor volume data using a repeated measures ANOVA model with a spatial power covariance structure. For each time point taken, treatment groups are compared to the vehicle control group. Tumor volumes are given as means±standard errors for each treatment group determined from a repeated measures ANOVA on each group.
The data in the column headed Signif. indicates whether the difference relative to the vehicle group is statistically significant: NS=Not Significant (p>0.05); *=0.01<p≦0.05; **=0.001<<p≦0.01; ***=p≦0.001.

| Structure (SMILES) | Tumor volume Mean (Day 7) | Tumor volume Mean (Day 10) | Tumor volume Mean (Day 13) | Tumor volume Mean (Day 16) | Tumor volume Mean (Day 20) | Tumor volume Mean (Day 23) | Tumor volume Mean (Day 27) | Tumor volume Mean (Day 30) | Tumor volume Mean (Day 34) | Statistical difference from the vehicle group (in words) (whole study (throughout), 3 mg/kg orally once daily) | Signif. (difference in tumor volume relative to the vehicle group) (Day 7) | Signif. (difference in tumor volume relative to the vehicle group) (Day 10) | Signif. (difference in tumor volume relative to the vehicle group) (Day 13) | Signif. (difference in tumor volume relative to the vehicle group) (Day 16) | Signif. (difference in tumor volume relative to the vehicle group) (Day 20) | Signif. (difference in tumor volume relative to the vehicle group) (Day 23) | Signif. (difference in tumor volume relative to the vehicle group) (Day 27) | Signif. (difference in tumor volume relative to the vehicle group) (Day 30) | Signif. (difference in tumor volume relative to the vehicle group) (Day 34) |
| --- | --- | --- | --- | --- | --- | --- | --- | --- | --- | --- | --- | --- | --- | --- | --- | --- | --- | --- | --- |
| CO[C@H]1CC2CC[C@@H](C)[C@@](O)(O2)C(=O)C(=O)N2CCCC[C@H]2C(=O)O[C@H]([C@H](C)C[C@@H]2CC[C@@H](O)[C@H](OC)C2)CC(=O)[C@H](C)/C=C(\C)[C@@H](O)[C@@H](OC)C(=O)[C@H](C)C[C@H](C)/C=C/C=C/C=C/1C [Rapamycin, rapamycin, reference compound] | 43.1 | 65.6 | 121.9 | 220.4 | 311.5 | 606.0 | 879.7 | 1160.8 | 1429.5 | not significantly different |  |  |  |  |  |  |  |  |  |
| Cn1cc(-c2ccc(F)c(C(F)(F)F)c2)nc1C1CCN(c2ncnc3[nH]ncc23)CC1 [p70 S6 Kinase Inhibitor] | 43.8 | 79.6 | 118.7 | 159.0 | 233.6 | 539.1 | 928.6 | 1158.5 | 1256.6 |  | NS (NS=Not Significant (p>0.05)) | NS (NS=Not Significant (p>0.05)) | NS (NS=Not Significant (p>0.05)) | * (*=0.01<p≦0.05) | * (*=0.01<p≦0.05) | NS (NS=Not Significant (p>0.05)) | NS (NS=Not Significant (p>0.05)) | NS (NS=Not Significant (p>0.05)) | NS (NS=Not Significant (p>0.05)) |
